In this test the target is Bromodomain-containing protein 4 (Homo sapiens, UniProt O60885). In words: TR-FRET Assay. Here is the method: All assay components were dissolved in buffer composition 20 mM Hepes pH 7.5, 150 mM NaCl, 5 mM DTT, 0.005% Tween 20, and 100 ug/ml BSA for BRD4 (1-477 and 44-460). The final concentrations of the bromodomain proteins are 1.6 nM BRD4(44-168), 1 nM BRD4(333-460), and 1 nM BRD4(1-477 or 44-460), and the fluorescent probe molecule is 100 nM, 50 nM, and 7.5 nM respectively. All proteins were biotinylated. A streptavidin labeled with terbium cryptate (Cisbio SA-Tb) was used as detection, and pre-mixed with the bromodomain protein at a final concentration of 0.2 nM. In some instances for BRD4 (44-460), anti-His terbium cryptate was used as a detection. 7.5 nl of dose-responsed test compound or dmso vehicle (0.0375%) was pre-spotted in a black Corning 384 well plate and 10 ul each of bromodomain/detection reagent and fluorescent small molecule solution were added to the plate, and the reaction incubated for 60 min at room temperature. Plates were then read on EnVision plate reader, (λex=340 nm, acceptor λEm=520 nm, and donor λEm=615 nm, LANCE D400 mirror). Time resolved fluorescence intensity measurements were made at both emissions, and the ratio of acceptor/donor was calculated and used for data analysis.
(In general: Time-resolved FRET reads energy transfer from a long-lived donor to a nearby acceptor.)

SMILES strings stand for the structures.

Consider `Cc1nnn(C)c1-c1cnc2c3ccc(C(C)(C)O)cc3n([C@@H](c3ccccc3F)C3CCOCC3)c2c1` [US10112941, Example 65], for which the IC50 was less than 5 nM.

By IC50 is commonly meant the midpoint of a concentration-inhibition curve. A low value points to greater potency in that assay.

Source of the values: BindingDB's records for patent US10112941 (Bristol-Myers Squibb, 2018).
